Results from publication PMC9016803, “Mitochondria-targeted half-sandwich iridium(III)-Cp*-arylimidazophenanthroline complexes as antiproliferative and bioimaging agents against triple negative breast cancer cells MDA-MB-468” (RSC Advances, 2022).

Tests used:
MDA-MB-468 cells [1] = assay: Mitochondrial membrane potential, JC-1 staining, flow cytometry; format: cell-based; conditions: positive control
Description: The cells treated with the mitochondrial uncoupler CCCP (carbonyl cyanide m-chlorophenylhydrazone), which mediates the dissipation of mitochondrial membrane potential, served as positive control for the detection of mitochondrial dysfunction. […] Unstained control represented in Fig. 10A has been used for gating purposes. […]

MDA-MB-468 cells [2] = assay: ROS generation, DCFDA staining; format: cell-based; conditions: positive control
Description: Our results indicated a dose dependent increase in ROS production in the MDA-MB-468 cells treated with IrL1 concentrations 1 μM and 3 μM. The extent of ROS production is indicated by the 2′,7′-dichlorofluorescein (DCF) formed by the deacetylation and subsequent oxidation of 2′,7′-dichlorofluorescin diacetate (DCFDA) through cellular esterases and ROS. […] ROS production was absent in untreated control. However, in the positive control, treated with H2O2, ROS production was high which is ∼99% (Fig. 11).
Colocalization study and ROS generation studies were performed using live cell lines in their log phase.

[3] = n-Octanol/water partition coefficient, shake flask method; format: physicochemical
Description: Both hydrophilicity and lipophilicity studies were performed to determine the tumour-inhibiting potential of the metal complexes. These complexes were highly soluble in DMSO and moderately soluble in H2O, MeOH, EtOH and CH3CN. […] The lipophilicity of these complexes was determined by performing an n-octanol/water partition coefficient (log Po/w, where Po/w = the octanol/water partition coefficient) study using the shake flask method (Table 1).[24] The experimental log Po/w values of these complexes were determined to be in the range of 0.27–0.34 (Table 1). […] This change in the electrolytic behaviour of the complexes from 1 : 1 to 1 : 2 can be attributed to the dissociation of the Ir–Cl bond and subsequent aquation of the complexes. […]
n-Octanol–water partition coefficient (log P o/w)9
The log Po/w of the iridium complexes were adhering to shake flask method using the previously published procedure. A known amount of each complex (IrL1-IrL5) was suspended in water (pre-saturated with n-octanol) and shaken for 48 h on an orbital shaker.
To allow the phase separation, the solution was centrifuged for 10 min at 3000 rpm. To obtain the partition coefficient, different ratios (0.5: 1, 1: 1, and 2: 1) of the saturated solutions were shaken with pre-saturated n-octanol for 20 min on an orbital shaker and followed the same procedure. Aliquots of the aqueous and octanol layers were pipetted out separately and the absorbances were measured with UV-Vis spectrophotometer using proper dilution. Each set was performed in triplicate, concentration of the substances in each layer was calculated using the respective molar extinction coefficients and the partition coefficient (log P o/w) values were obtained from the ratio.

MDA-MB-468 cells [4] = assay: MTT in vitro cytotoxicity assay, triple negative breast cancer cells; format: cell-based; conditions: MDA-MB-468, MTT, 48 h
Description: The in vitro cytotoxicity of complexes IrL1–IrL5 and cisplatin were investigated using the typical 3-(4,5-dimethylthiazol-2-yl)-2,5-diphenyltetrazolium bromide (MTT) assay protocol against a panel of triple negative cancer cell line MDA-MB-468. The cells were initially incubated with the all test compounds at concentrations ranging from 0.5–50 μM for 48 h in vitro.
Cytotoxicity study of all the synthesized compounds against triple negative breast cancer cells MDA-MB-468 and immortalized human keratinocyte cell line HaCaT were done with a drug incubation period of 48 h by following standard procedure that were mentioned in ESI. ^† Preliminary studies were done to understand the mode of action of the complex to induce cytotoxicity using flow cytometric methods.
For doing the cell culture the cells were retained in DMEM media (Gibco), added with 10% fetal bovine serum (Himedia, India), 1% penicillin and streptomycin and 1% of Glutmax (Gibco, Thermo Scientific, USA) at 37°C in 5% CO2. When the cells attained 70%-80% confluency they were trypsinized using 0.25% trypsin-EDTA (Thermo Fisher Scientific, […]
In vitro cytotoxicity study was measured by standard MTT assay protocol.1 First the prepared complexes (IrL1-IrL5) were dissolved in 0.1% DMSO followed by dilution with DMEM medium. One cancer cell lines i.e. triple negative breast cancer cells (MDA-MB-468) and one normal cell line i.e. immortalized human keratinocyte cell line (HaCaT) were used for this assay. Approximately 1×10^4 cells per well were cultured in 100 μl of a growth medium in 96-well plates and then incubated under 5% CO2 atmosphere at 37°C temperature. Then the incubated cells were treated with different concentrations of the complexes in the volume of […]. The cisplatin was taken as standard positive control for this experiment. The Cells which were in the control wells, also engaged the same volume of medium containing 0.1% DMSO. After 48 h, the medium was superfluous and cell cultures were again incubated with 100 μL of MTT reagent (1 mg/ml) for 5 h at 37 °C. Then the resultant suspension was kept on micro vibrator for 10 min and the absorbance was recorded at λ = 570 nm in ELISA plate reader. The experiment was also performed in triplicate. The data were represented as the growth inhibition percentage i.e. % growth inhibition = 100 − [(AD × 100)/AB], where AD, measured absorbance in wells which contain samples and AB, measured absorbance for blank wells (cells with a medium and a vehicle). […]

Solubility study = format: physicochemical; conditions: DMSO-10% DMEM medium (1 : 99 v/v, comparable to cell media)
Description: Both hydrophilicity and lipophilicity studies were performed to determine the tumour-inhibiting potential of the metal complexes. These complexes were highly soluble in DMSO and moderately soluble in H2O, MeOH, EtOH and CH3CN. […] The lipophilicity of these complexes was determined by performing an n-octanol/water partition coefficient (log Po/w, where Po/w = the octanol/water partition coefficient) study using the shake flask method (Table 1).[24] The experimental log Po/w values of these complexes were determined to be in the range of 0.27–0.34 (Table 1). […] This change in the electrolytic behaviour of the complexes from 1 : 1 to 1 : 2 can be attributed to the dissociation of the Ir–Cl bond and subsequent aquation of the complexes.

Row | log P (n-octanol/water partition coefficient) [3] | Solubility (Solubility study) | Compound | cells retaining healthy mitochondria (JC-1 aggregates) (MDA-MB-468 cells [1]) | cells with damaged mitochondria (JC-1 monomers) (MDA-MB-468 cells [1]) | ROS production (MDA-MB-468 cells [2]) | IC50 (MDA-MB-468 cells [4])
1 | 0.29 ± 0.08 | 700 µM | [Iridium(III)-Cp*-2-((3aR,7aR)-3a,7a-dihydrobenzo[b]thiophen-2-yl)-1H-imidazo[4,5-f][1,10]phenanthroline]PF6 [IrL5] |  |  |  | 4.41 µM
2 | −0.23 ± 0.2 | 1200 µM | [Iridium(III)-Cp*-3-(1H-imidazo[4,5-f][1,10]phenanthrolin-2-yl)-4H-chromen-4-one]PF6 [IrL3] |  |  |  | 20.3 µM

More lines, now with the values behind:

Row | Compound | log P (n-octanol/water partition coefficient) [3] | Solubility (Solubility study) | cells retaining healthy mitochondria (JC-1 aggregates) (MDA-MB-468 cells [1]) | cells with damaged mitochondria (JC-1 monomers) (MDA-MB-468 cells [1]) | ROS production (MDA-MB-468 cells [2]) | IC50 (MDA-MB-468 cells [4])
3 | N#CC(C#N)=NNc1cccc(Cl)c1 [CCCP, carbonyl cyanide m-chlorophenylhydrazone, reference compound] |  |  | ~20% | ~79% |  | 
4 | OO [H2O2, reference compound] |  |  |  |  | ~99% | 
5 | [Iridium(III)-Cp*-2-((3aR,7aR)-3a,7a-dihydro-1H-indol-3-yl)-1H-imidazo[4,5-f][1,10]phenanthroline]PF6 [IrL4] | 0.02 ± 0.05 | 900 µM |  |  |  | 5.2 µM
6 | [Iridium(III)-Cp*-2-(anthracen-1-yl)-1H-imidazo[4,5-f][1,10]phenanthroline]PF6 [IrL2] | 0.34 ± 0.07 | 600 µM |  |  |  | 20.4 µM
